In US20250318524A1, “ANTIMICROBIAL COATING COMPOSITION AND METHOD OF USE THEREOF” (priority 2024, published 2025):

Assay: Selection of antimicrobial agents: solubility in aqueous solution, stability, compatibility with the coating composition
Settings: 20 wt. % in aqueous solution, during storage

In the case of `N=C(NCCCCCCNC(=N)NC(=N)Nc1ccc(Cl)cc1)NC(=N)Nc1ccc(Cl)cc1.O=C(O)[C@H](O)[C@@H](O)[C@H](O)[C@H](O)CO.O=C(O)[C@H](O)[C@@H](O)[C@H](O)[C@H](O)CO` [Chlorhexidine gluconate, chlorhexidine gluconate], the “colour of solution over time” value is reported as “turned dark brown”.
